According to BindingDB's records for doi:10.7270/Q2T43RJV (Nmmlsc, 2010):

What follows are compounds tested against Guanine nucleotide-binding protein G(o) subunit alpha (Homo sapiens, UniProt P09471) (assay: RGS4-Galphao interaction regulators, SAR follow-up, biochemical, multiplexed bead assay, additional SAR round (AID 2829)).
Sequence of Guanine nucleotide-binding protein G(o) subunit alpha (P09471 whole entry): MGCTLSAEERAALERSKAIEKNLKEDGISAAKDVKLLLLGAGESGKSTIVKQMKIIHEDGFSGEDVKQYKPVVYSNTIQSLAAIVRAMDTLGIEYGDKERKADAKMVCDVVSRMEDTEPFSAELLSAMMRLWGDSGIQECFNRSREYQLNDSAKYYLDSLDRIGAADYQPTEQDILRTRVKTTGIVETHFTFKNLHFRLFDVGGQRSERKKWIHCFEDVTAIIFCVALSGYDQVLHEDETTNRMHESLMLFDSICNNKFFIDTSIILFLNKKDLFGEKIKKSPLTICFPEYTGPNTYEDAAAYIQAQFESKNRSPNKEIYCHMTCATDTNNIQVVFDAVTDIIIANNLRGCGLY

EC50, > 30 µM:
Cc1ccc2c(Cl)c(C(=O)NCCCN3CCOCC3)sc2c1 [KUC103874N], O=C(NCCCn1ccnc1)c1sc2cc([N+](=O)[O-])ccc2c1Cl [3-chloro-N-[3-(1-imidazolyl)propyl]-6-nitro-1-benzothiophene-2-carboxamide], O=C(NCCCN1CCOCC1)c1sc2cc([N+](=O)[O-])ccc2c1Cl [3-chloranyl-N-(3-morpholin-4-ylpropyl)-6-nitro-1-benzothiophene-2-carboxamide], O=C(c1sc2cc([N+](=O)[O-])ccc2c1Cl)N1CCNCC1, NC(=O)c1sc2cc([N+](=O)[O-])ccc2c1Cl [KSC-1-100]
